This note sets out measurements from PubChem BioAssay AID1645865 (Buhrlage Lab, Dana-Farber Cancer Institute and Novartis …, 2021).

Calls of active or inactive are those of the source.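 How the source made its calls: active means maximal inhibition of the USP30 enzyme reaching 30% or more across the dose series; inactive means the rest.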

In this test the target is Ubiquitin carboxyl-terminal hydrolase 30 (Homo sapiens) (UniProt Q70CQ3). In words: ubiquitin-specific protease 30 DUB inhibitors, concentration-effect, biochemical, validation of primary actives (AID 1645865). The conditions noted are these: purified USP30, Ub-rhodamine cleavage, fluorescence, 2 h.
Ubiquitin carboxyl-terminal hydrolase 30 (Homo sapiens), sequence (Q70CQ3 whole entry, looked up): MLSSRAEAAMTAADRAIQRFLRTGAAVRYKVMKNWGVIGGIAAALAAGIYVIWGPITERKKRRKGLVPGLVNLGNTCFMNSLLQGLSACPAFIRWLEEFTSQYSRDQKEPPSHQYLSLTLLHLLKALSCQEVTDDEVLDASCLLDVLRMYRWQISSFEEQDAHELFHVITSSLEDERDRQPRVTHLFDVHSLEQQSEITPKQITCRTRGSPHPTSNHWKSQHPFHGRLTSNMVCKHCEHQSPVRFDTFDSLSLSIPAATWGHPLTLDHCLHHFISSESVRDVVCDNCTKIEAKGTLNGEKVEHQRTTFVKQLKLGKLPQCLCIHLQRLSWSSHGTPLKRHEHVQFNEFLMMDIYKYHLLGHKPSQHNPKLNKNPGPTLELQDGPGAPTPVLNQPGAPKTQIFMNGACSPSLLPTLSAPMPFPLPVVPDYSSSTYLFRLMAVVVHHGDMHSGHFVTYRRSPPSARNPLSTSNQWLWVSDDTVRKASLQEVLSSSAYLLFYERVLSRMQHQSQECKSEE

Regarding `O=C1C[C@@H]2O[C@H](CNC(=O)[C@@H]3CN(CCN3C(=O)C3CCOCC3)C(=O)[C@@H]3C[C@@H](CN3Cc3ccc(F)c(F)c3)N1)[C@@H](O)[C@H]2O`, the IC50 was > 50 µM (inactive).
The value for `Cc1cccc(NC(=O)c2nc(N3CCSCC3)c3cnn(C)c3n2)c1` was > 50 µM (inactive); that for `COc1ccc(CNC(=O)Nc2cccc3ccccc23)cc1` was 3.81 µM.
Take `O=C1CN(C(=O)COC(=O)CCCN2C(=O)c3cccc4cccc(c34)C2=O)c2ccccc2N1`: the IC50 is > 50 µM (inactive).
With `Cc1ccc(NC(=O)c2sc(=S)n(CCc3ccccc3)c2N)cc1`, the IC50 was 1.74 µM.
The value for `Cc1cccc(NC(=O)CSc2nnc(-c3n[nH]c4c3CCC4)n2N)c1C` was 20.2 µM; that for `CN1CCN(C(=O)c2cc(-c3ccn(-c4ccccc4)n3)n3ccccc23)CC1` was > 50 µM (inactive).
Consider `Cc1ccccc1OCCC(=O)Nc1cccc(S(=O)(=O)Nc2ccccc2Cl)c1`, for which the IC50 was > 50 µM (inactive).
As to `Cc1nc2ccccc2nc1SCC(=O)Nc1ccc2c(c1)OCO2`, the IC50 was 40.3 µM.
Turning to `O=C(Nc1ccccc1)c1ccc2c(c1)CC(c1ccccc1)OC2=O` (stereo not given), the IC50 was 7.72 µM.
As for `Cc1c(C(=O)NCc2cccc(Br)c2)oc2c1-c1[nH]ncc1CC2`, the figure is > 50 µM (inactive); as for `CCc1cccc2c(C(=O)COc3ccc(C#N)cc3)c[nH]c12`, 11.3 µM.
Consider `Cc1ccc2c(c1)c(=O)c(C(=O)c1ccc(F)cc1)cn2CC(=O)Nc1ccc2c(c1)OCCO2`, for which the IC50 was > 5 µM (inactive).
Turning to `Cc1cccc(NC(=O)Cn2c(=O)n(Cc3ccc(F)cc3)c(=O)c3sccc32)c1`, the IC50 was 2.74 µM.
The value for `COc1ccccc1-c1ccc(SCC(=O)Nc2ccc3c(c2)OCCO3)nn1` was > 50 µM (inactive); that for `Cc1ccccc1Cn1ccc(NC(=O)c2noc(C)c2[N+](=O)[O-])n1` was > 50 µM (inactive); that for `CCc1nc(SCC(=O)Nc2ccccc2Cl)c2oc3ccccc3c2n1` was under 0.05 µM.
Take `Cc1ccc(NC(=O)Cc2nnc3c(-c4nc(C5CC5)no4)cccn23)cc1`: the IC50 is 3.15 µM.
`Cc1ccc2c(C)nc(Nc3ncc4c(n3)CC(c3ccco3)CC4=O)nc2c1` (stereo not given): the IC50 was under 0.05 µM.
For the compound `COc1ccc(C(=O)CSc2ccc3nnc(CCNC(=O)c4ccc(OC)cc4)n3n2)cc1`, the IC50 is > 50 µM (inactive).
For `Cc1ccccc1NC(=O)Cn1cc(-c2nc(C3CC3)no2)ccc1=O`, the IC50 was > 50 µM (inactive).
On to `CC1OC(CC(=O)O)CC23OC12C(=O)c1c(O)cccc1C3=O` (stereo not given), for which the IC50 was > 50 µM (inactive).
As for `CC(=O)c1cccc(NC(=O)c2ccc(-c3csc(C)n3)cc2)c1`, the figure is > 50 µM (inactive); as for `CN(C)C(=O)CSc1nnc(-c2cccc(Cl)c2)n1-c1ccc(Cl)c(C(F)(F)F)c1`, 2.08 µM; as for `CCn1cc(-c2cc(C(=O)Nc3cnn(Cc4cccc(F)c4)c3)c3ccccc3n2)cn1`, 49.2 µM.
`O=C(NCc1ccc(Cl)cc1)Nc1cccc2ccccc12`: the IC50 is 25.3 µM.
For `Cc1nnc(NC(=O)C2CCN(c3ccc(S(N)(=O)=O)cc3[N+](=O)[O-])CC2)o1`, the IC50 is 40.9 µM.
As to `CN(C(=O)c1ccncc1)[C@H]1CC[C@@]2(C)C[C@H](c3ccccc3)C[C@](C)(O2)[C@@H]1O`, the IC50 is > 50 µM (inactive).
For the compound `CCNc1nc(SCC(C)=O)nc2sc3c(c12)CCC(C)C3` (stereo not given), the IC50 is > 50 µM (inactive).
For the compound `Cc1cccc(C)c1NC(=O)Cn1c(=O)n(CCCCC(=O)NCc2ccc3c(c2)OCO3)c(=O)c2ccccc21`, the IC50 was 1.5 µM.
The value for `C[C@@]12c3ccc4c(c3C(=O)c3occ(c31)C(O)C[C@H]2O)CCC4=O` (stereo not given in full) was > 50 µM (inactive); that for `COc1ccc(NC(=O)CN2CCN(c3ccc(C(C)=O)cc3)CC2)cc1S(=O)(=O)N1CCCCC1` was 36.4 µM; that for `CC(=O)c1sc(NC(=O)c2ccccc2-c2ccc(C(F)(F)F)cc2)nc1C` was 11 µM.
The value for `C/C=C\C1=CC(=O)[C@]23C[C@H]2[C@]2(C)CO[C@@]1(O)[C@@]3(O)O2` was > 50 µM (inactive); that for `Cc1cc(C)c(O)c(-c2cc(C(=O)Nc3ccccc3Cl)[nH]n2)c1` was 2.1 µM.
On to `COc1cccc(N2CCN(C(=O)C3CCN(c4nc(NC(C)=O)ns4)CC3)CC2)c1`, for which the IC50 was > 50 µM (inactive).
The value for `c1ccc2c(c1)ccc1nnc(-c3ccc4c(c3)OCO4)n12` was > 50 µM (inactive).
Regarding `CCC(C)c1ccc(-c2csc(Cn3c(CN4CCN(C)CC4)nc4ccccc4c3=O)n2)cc1` (stereo not given), the concentration for half-maximal inhibition (IC50) was 1.63 µM.
For `Cc1cc(N2CCN(c3ncccn3)CC2)nc2ccc(NC(=O)c3ccncc3)cc12`, the IC50 was 2.68 µM.
As for `Cc1cc(C(=O)N2CCOCC2)c(C)n1-c1ccc(O)cc1`, the IC50 was > 50 µM (inactive).
As to `O=C(Cn1ccc2ccc(N3CCOCC3)nc21)NCc1ccccc1F`, the IC50 was > 50 µM (inactive).
`Cc1cc(C)cc(-n2ccnc(SCC(=O)Nc3cccc(Cl)c3)c2=O)c1`: the IC50 is 7.47 µM.
As for `CNC(=O)c1cc2nc(N(C)C)n(-c3ccc(F)cc3)c2s1`, the figure is > 50 µM (inactive); as for `O=c1[nH]c(C2CCN(S(=O)(=O)c3ccc(S(=O)(=O)NC4CCCC4)cc3)CC2)nc2c1nnn2Cc1cccc(Cl)c1`, > 50 µM (inactive).
The value for `Cc1nnc(-c2nnc(NCc3ccc(Cl)cc3)c3ccccc23)o1` was > 50 µM (inactive).
The value for `CCC(=O)Nc1nc2cc(NC(=O)Nc3cc(C)cc(C)c3)ccc2s1` was 1.65 µM; that for `Cc1nn(-c2ccccc2)c(C)c1C(=O)OCC(=O)Nc1cccc(C#N)c1` was > 50 µM (inactive); that for `O=C(Nc1cccc(Cl)c1)c1ncn2c1CNS(=O)(=O)c1ccccc1-2` was 12.3 µM.
As for `CCc1ccc(OCc2nnc(SCC(=O)Nc3ccccc3OC)n2Cc2ccccc2)cc1`, the IC50 is > 50 µM (inactive).
As for `O=S1(=O)CCN(Cc2c(F)cccc2F)c2c(F)nc(N3CCOCC3)c(F)c21`, the figure is > 50 µM (inactive); as for `COc1cccc(CNC(=O)C2=Cc3cccc(OC)c3OC2)c1`, > 50 µM (inactive).
The value for `Cc1ccc(NC(=O)c2sc3ncn(CC(=O)N4CCN(c5ccccn5)CC4)c(=O)c3c2C)c(Br)c1` was 8.36 µM.
As to `COc1ccc(NC(=O)Cn2cc(C(=O)c3ccc(C)cc3)c(=O)c3ccccc32)cc1`, the IC50 is 2.32 µM.
For the compound `COCCCNC(=O)c1ccc(Cn2c(=O)c3ccccc3n(CC(=O)NC3CCCCC3)c2=O)cc1`, the IC50 was 24.8 µM.
In the case of `Cc1ccc(CNC(=O)c2ccc(N3C(=O)[C@@H]4Cc5ccccc5CN4C3=O)cc2)cc1`, the IC50 was 23.6 µM.
As for `O=C(CSc1ncnc2c1oc1ccccc12)NC1CCCC1`, the figure is 20.7 µM; as for `COc1ccc(-c2cc3nc([C@@H](C)NC(=O)c4ccc5c(c4)OCO5)nn3cn2)cc1`, > 50 µM (inactive); as for `CC1=C(c2ccc(F)cc2)S(=O)(=O)N=C1Nc1ccc(Cl)cc1`, 32.3 µM.
In the case of `COC(=O)c1ccc2c(=O)n(CCCCCC(=O)NCCc3ccc(S(N)(=O)=O)cc3)c(=O)[nH]c2c1`, the IC50 was 6.13 µM.
As for `O=C(NCc1ccco1)c1ccc2c(c1)N(Cc1cccc(F)c1)C(=O)c1ccccc1S2`, the figure is > 50 µM (inactive).
